Test [1] concerns the target T1, succinate ubiquinone reductase (SQR) activity of Complex II (Homo sapiens, UniProt O14521+Q99643).
T1 construct: endogenous in cells; host or cells: KMS11 multiple myeloma cells, permeabilized
Kind of test: SQR activity assay in permeabilized cells. The class given is biochemical. The conditions noted are these: TTFA-treated KMS11 cells, 24 h. From the text: Given reduced oxygen consumption rates (OCR) in sensitive cells, the activities of mitochondrial Complex I and II were examined. Mitochondrial Complex I and II receive electrons from the electron donors NADH or FADH2 respectively, that are transferred to the terminal electron acceptor (O2) via a series of redox reactions. Complex I or NADH:Coenzyme Q:oxidoreductase is the largest multimeric respiratory complex of ETC comprised of over 40 subunits with its catalytic subunit containing the NADH binding site. Electrons from NADH are transferred to FMN and then to FeS clusters and finally to ubiquinone where ubiquinone is reduced to ubiquinol. […] Complex I activity was measured using an assay that relies on immunocapture of Complex I from freshly prepared cellular protein extracts. The NADH dehydrogenase activity of immunocaptured Complex I was determined by the oxidation of NADH and simultaneous reduction of the provided dye resulting in increase in absorbance. SDH and SQR activities were measured in live permeabilized cells, containing intact mitochondria pretreated with inhibitors of Complex I (rotenone), Complex III (antimycin) and Complex IV (sodium azide), allowing for selective measurement of SQR or SDH activity. […]
Succinate ubiquinone reductase (SQR) and succinate dehydrogenase (SDH) activity assays were performed by absorbance-based assays using different electron acceptors. […]

The test system of test [2] is MM cell lines. Kind of test: Spare respiratory capacity (Seahorse XFe96 stress assay). The class given is cell-based. The note with it: TTFA treated KMS11 cells. As to the method:
Spare capacity in venetoclax-sensitive and venetoclax -resistant cells was determined by subtracting basal OCR from maximal OCR.

The subject of test [3] is ATF4, NOXA. The test is described as follows: Immunoblot of whole cell lysates for ATF4 and NOXA. The conditions noted are these: 100 μM TTFA, 24 h, MM cells. The class given is cell-based. On the technique in general: A western blot detects proteins with antibodies after separation by electrophoresis.
Test [4] relates to BIM binding to BCL-2. The test is described as follows: Coimmunoprecipitation of BCL-2 and bound BIM. In kind it is cell-based. The conditions noted are these: TTFA-treated KMS11 cells. On the procedure: The regulation of ATF4, BIM and NOXA in MM cells that were not sensitized by TTFA treatment were investigated. Whole-cell lysates were evaluated for total protein expression. Coimmunoprecipitations was performed to examine binding of BIM with antiapoptotic BCL-2 in KMS11 and the TTFA insensitive-t(11;14) KMS21BM cells. Induction of BIM and NOXA were observed upon TTFA treatment (FIG. 5J) only in KMS11 not in the TTFA insensitive-t(11;14) KMS21BM cells.

The values below come from patent US20210386752A1, “Uses of Electron Transport Chain Complex I or Complex II Inhibitors in Treating Cancer, Combination Therapies, and Diagnostic Methods Related Thereto” (Emory University, priority 2020, published 2021).

T1 sequence (Q99643 30-169): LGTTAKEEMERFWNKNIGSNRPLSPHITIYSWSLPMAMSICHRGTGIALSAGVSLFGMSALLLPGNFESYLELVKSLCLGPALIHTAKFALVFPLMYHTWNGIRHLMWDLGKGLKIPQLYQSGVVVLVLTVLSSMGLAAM
T1 sequence (O14521 57-159): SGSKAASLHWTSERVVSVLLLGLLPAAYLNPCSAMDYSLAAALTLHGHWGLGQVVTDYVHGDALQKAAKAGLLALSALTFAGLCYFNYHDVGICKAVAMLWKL
T1 sequence (P31040 43-664 partner): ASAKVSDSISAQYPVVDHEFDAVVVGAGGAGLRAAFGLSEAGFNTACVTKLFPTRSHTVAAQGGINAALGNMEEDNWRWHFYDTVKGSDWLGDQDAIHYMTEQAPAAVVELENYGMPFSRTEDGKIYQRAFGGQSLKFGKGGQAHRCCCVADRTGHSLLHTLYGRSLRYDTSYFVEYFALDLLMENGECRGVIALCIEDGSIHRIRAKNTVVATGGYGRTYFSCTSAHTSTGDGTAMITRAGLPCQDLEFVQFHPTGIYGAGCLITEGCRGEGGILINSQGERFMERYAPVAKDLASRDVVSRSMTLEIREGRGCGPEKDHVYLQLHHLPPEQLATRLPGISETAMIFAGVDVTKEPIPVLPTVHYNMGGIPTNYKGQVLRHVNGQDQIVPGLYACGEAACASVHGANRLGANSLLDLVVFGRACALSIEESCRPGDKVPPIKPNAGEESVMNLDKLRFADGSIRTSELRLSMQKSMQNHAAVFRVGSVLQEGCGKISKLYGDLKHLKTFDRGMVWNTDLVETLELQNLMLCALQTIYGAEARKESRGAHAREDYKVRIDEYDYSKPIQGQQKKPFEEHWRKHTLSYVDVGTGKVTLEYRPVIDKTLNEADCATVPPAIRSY
T1 sequence (P21912 29-280 partner): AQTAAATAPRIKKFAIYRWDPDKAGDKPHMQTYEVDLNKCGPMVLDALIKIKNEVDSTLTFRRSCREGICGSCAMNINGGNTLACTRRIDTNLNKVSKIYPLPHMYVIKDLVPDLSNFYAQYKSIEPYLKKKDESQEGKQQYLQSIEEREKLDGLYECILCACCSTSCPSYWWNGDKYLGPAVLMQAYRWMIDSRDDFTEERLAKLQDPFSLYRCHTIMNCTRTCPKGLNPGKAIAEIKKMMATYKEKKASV

Take `O=C(CC(=O)C(F)(F)F)c1cccs1` [TTFA, 4,4,4-trifluoro-1-(2-thienyl)-1,3-butanedione]: the SQR activity entry in test [1] is recorded as “Significant reduction in SQR activity”. In test [2], the “spare respiratory capacity (SRC)” value is on record as “concordantly reduced”. Also, the “protein expression of ATF4, NOXA” value in test [3] is on record as “Increased expression of ATF4, NOXA”. Further, in test [4], the “BIM binding to BCL-2” value was “elevated BIM binding to BCL-2”.
